We go through 6 molecules from ChEMBL document CHEMBL5029145, “Discovery of AZD8154, a Dual PI3Kγδ Inhibitor for the Treatment of Asthma” (J Med Chem, 2021).

SMILES strings stand for the structures. Converted amounts (≈) assume the structure as drawn.

The target of data set [1] is Phosphatidylinositol 4,5-bisphosphate 3-kinase catalytic subunit gamma isoform (Mus musculus, UniProt Q9JHG7). Description: Inhibition of PI3Kgamma in C5a-stimulated mouse RAW 264 cells assessed as inhibition of AKT phosphorylation at Ser473 residue Pretreated for 15 mins followed by C5a stimulation measured after 3 mins by HTRF assay. Format: cell-based.
Data set [2] has as its target T1, Phosphatidylinositol 4,5-bisphosphate 3-kinase catalytic subunit delta isoform (Homo sapiens, UniProt O00329).
T1 sequence (O00329 whole entry): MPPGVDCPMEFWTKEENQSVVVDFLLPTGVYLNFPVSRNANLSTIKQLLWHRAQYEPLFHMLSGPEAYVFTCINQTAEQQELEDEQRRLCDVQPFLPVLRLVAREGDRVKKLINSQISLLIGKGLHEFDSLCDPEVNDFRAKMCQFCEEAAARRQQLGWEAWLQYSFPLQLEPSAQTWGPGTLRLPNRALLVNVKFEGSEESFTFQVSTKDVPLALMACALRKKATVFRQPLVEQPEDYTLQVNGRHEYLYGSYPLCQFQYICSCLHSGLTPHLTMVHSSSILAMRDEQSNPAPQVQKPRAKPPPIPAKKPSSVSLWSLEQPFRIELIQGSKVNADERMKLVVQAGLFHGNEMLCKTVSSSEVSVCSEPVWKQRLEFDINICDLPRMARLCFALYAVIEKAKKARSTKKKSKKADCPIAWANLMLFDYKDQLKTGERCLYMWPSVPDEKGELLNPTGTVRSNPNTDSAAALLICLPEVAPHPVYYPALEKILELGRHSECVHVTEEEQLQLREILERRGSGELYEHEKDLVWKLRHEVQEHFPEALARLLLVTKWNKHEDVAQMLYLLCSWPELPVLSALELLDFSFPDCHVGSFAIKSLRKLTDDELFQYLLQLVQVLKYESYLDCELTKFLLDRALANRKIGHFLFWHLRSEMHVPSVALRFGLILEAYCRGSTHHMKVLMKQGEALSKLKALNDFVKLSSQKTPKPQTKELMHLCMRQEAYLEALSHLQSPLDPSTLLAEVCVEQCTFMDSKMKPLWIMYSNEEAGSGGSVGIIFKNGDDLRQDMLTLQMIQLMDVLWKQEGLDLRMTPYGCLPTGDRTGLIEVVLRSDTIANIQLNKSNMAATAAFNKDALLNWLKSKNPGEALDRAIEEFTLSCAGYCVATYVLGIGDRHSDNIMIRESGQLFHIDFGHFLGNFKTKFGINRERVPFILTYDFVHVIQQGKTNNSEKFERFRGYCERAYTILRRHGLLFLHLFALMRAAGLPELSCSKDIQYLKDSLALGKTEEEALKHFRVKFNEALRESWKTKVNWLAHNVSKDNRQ
Description: Inhibition of PI3Kdelta in anti-IgM-stimulated human JeKo-1 cells assessed as inhibition of AKT phosphorylation at Ser473 residue incubated for 60 mins by TR-FRET assay. A general note: TR-FRET usually uses a lanthanide donor and a delayed reading to cut background.

Data set [3] has as its target T1, Phosphatidylinositol 4,5-bisphosphate 3-kinase catalytic subunit delta isoform. Put plainly: Inhibition of recombinant human PI3Kdelta assessed as reduction in ADP production using Dic8-PIP2 as substrate pre-treated for 15 mins followed by substrate addition measured after 60 mins by ADP-glo assay. A general note: ADP-Glo first removes unused ATP, then detects ADP through luciferase.

The target in data set [4] is Phosphatidylinositol 4,5-bisphosphate 3-kinase catalytic subunit gamma isoform (Homo sapiens, UniProt P48736). Description: Inhibition of recombinant human PI3Kgamma assessed as reduction in ADP production using Dic8-PIP2 as substrate pre-treated for 15 mins followed by substrate addition measured after 60 mins by ADP-glo assay.
The target in data set [5] is Phosphatidylinositol 4,5-bisphosphate 3-kinase catalytic subunit alpha isoform (Homo sapiens, UniProt P42336). Put plainly: Inhibition of recombinant human PI3Kalpha assessed as reduction in ADP production using Dic8-PIP2 as substrate pre-treated for 15 mins followed by substrate addition measured after 60 mins by ADP-glo assay.
The nature of data set [6]: Clearance in rat at 0.5 mg/kg, iv. The data set is classed as ADME, organism-based. To be noted: in vivo.
The nature of data set [7]: Thermodynamic stability assessed as onset melting temperature. Format: physicochemical.
Data set [8] is described as follows: Half life in rat plasma at 0.5 mg/kg, iv. Format: ADME, organism-based.
Data set [9] in a line: Permeability in human Caco2 cells. The data set is classed as ADME, cell-based. To be noted: caco-2. A general note: Caco-2 monolayers are a common model of the intestinal barrier.
The target in data set [10] is Phosphatidylinositol 3-kinase catalytic subunit type 3 (Homo sapiens, UniProt Q8NEB9). Description: Inhibition of PIK3C3 (unknown origin) assessed as reduction in substrate phosphorylation by FRET Adapta assay.
Data set [11] is described as follows: Distribution coefficient, logD of compound at pH 7.4. The data set is classed as physicochemical. To be noted: octanol/water.
The target of data set [12] is Phosphatidylinositol 4-kinase alpha (Homo sapiens, UniProt P42356). Description: Inhibition of PI4KA (unknown origin) assessed as reduction in substrate phosphorylation by FRET Adapta assay.
Data set [13] addresses Phosphatidylinositol 4-phosphate 3-kinase C2 domain-containing subunit alpha (Homo sapiens, UniProt O00443). Description: Inhibition of PIK3C2A (unknown origin) assessed as reduction in substrate phosphorylation by FRET Adapta assay.
Data set [14] concerns the target Phosphatidylinositol 4-kinase beta (Homo sapiens, UniProt Q9UBF8). Put plainly: Inhibition of PI4KB (unknown origin) assessed as reduction in substrate phosphorylation by FRET Adapta assay.
Data set [15] can be described thus: Solubility of compound in at pH 7.4 at 1 mg/ml using crystalline form of sample incubated for 24 hrs by HPLC MS analysis. The data set is classed as physicochemical.
Data set [16] can be described thus: Apparent terminal half life in rat administered via inhalation. Format: ADME. Conditions: in vivo, inhaled or intranasal.
Data set [17] is described as follows: Volume of distribution at steady state in rat at 0.5 mg/kg, iv. Format: ADME, organism-based. To be noted: in vivo, read-out: Vdss.
Data set [18] addresses Phosphatidylinositol 4-phosphate 3-kinase C2 domain-containing subunit beta (Homo sapiens, UniProt O00750). Description: Inhibition of PIK3C2B (unknown origin) assessed as reduction in substrate phosphorylation by FRET Adapta assay.
The nature of data set [19]: Dissociation constant, pKa of compound. Format: physicochemical.

As usually defined, the IC50 is the concentration at which inhibition is half-maximal. Usually clearance stands for a measure of how efficiently the substance is removed, as volume per time. Low values mean inefficient removal, high ones efficient removal. What is called half-life is the time in which the quantity being followed falls by half. A word on the logD: it is the decadic logarithm of the distribution of all forms, ionised or not, between an organic phase and buffer at a given pH. A low value points to a more hydrophilic compound. The solubility (thermodynamic) is the concentration in solution at equilibrium with solid. By pKa is commonly meant the pH at which an ionisable group is half protonated. Higher therefore signals a weaker acid or stronger base.

Phosphatidylinositol 4,5-bisphosphate 3-kinase catalytic subunit alpha isoform, sequence (P42336 whole entry, canonical isoform): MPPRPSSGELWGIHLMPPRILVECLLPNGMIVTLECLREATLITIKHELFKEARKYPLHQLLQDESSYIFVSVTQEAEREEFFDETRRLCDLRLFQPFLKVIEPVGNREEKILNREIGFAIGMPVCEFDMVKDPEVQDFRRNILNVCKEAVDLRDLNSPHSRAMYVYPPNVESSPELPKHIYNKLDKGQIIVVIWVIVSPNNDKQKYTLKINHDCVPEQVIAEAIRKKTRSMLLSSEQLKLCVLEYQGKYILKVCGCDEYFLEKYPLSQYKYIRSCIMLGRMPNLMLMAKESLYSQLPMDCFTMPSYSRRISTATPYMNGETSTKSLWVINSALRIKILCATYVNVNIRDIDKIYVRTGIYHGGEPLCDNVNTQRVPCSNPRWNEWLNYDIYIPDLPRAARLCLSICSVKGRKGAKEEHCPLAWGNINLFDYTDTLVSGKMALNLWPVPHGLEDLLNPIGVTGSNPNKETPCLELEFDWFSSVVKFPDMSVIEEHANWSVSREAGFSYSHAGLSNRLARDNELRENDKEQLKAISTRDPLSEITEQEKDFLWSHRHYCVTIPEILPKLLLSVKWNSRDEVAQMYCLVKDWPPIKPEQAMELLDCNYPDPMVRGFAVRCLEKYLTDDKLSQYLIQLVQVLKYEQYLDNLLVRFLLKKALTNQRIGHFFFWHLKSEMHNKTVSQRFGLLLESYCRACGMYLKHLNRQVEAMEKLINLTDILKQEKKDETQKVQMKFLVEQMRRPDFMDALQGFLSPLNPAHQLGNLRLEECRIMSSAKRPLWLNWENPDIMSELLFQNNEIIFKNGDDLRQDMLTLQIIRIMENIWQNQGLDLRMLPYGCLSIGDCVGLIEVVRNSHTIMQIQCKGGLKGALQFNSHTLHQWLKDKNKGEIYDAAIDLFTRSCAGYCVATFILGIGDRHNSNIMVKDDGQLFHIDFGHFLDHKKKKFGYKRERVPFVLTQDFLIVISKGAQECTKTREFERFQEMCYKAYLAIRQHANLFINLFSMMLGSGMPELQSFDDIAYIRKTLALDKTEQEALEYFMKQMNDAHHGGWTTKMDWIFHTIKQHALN
Phosphatidylinositol 4,5-bisphosphate 3-kinase catalytic subunit gamma isoform (Homo sapiens, UniProt P48736), sequence (P48736 whole entry, canonical isoform): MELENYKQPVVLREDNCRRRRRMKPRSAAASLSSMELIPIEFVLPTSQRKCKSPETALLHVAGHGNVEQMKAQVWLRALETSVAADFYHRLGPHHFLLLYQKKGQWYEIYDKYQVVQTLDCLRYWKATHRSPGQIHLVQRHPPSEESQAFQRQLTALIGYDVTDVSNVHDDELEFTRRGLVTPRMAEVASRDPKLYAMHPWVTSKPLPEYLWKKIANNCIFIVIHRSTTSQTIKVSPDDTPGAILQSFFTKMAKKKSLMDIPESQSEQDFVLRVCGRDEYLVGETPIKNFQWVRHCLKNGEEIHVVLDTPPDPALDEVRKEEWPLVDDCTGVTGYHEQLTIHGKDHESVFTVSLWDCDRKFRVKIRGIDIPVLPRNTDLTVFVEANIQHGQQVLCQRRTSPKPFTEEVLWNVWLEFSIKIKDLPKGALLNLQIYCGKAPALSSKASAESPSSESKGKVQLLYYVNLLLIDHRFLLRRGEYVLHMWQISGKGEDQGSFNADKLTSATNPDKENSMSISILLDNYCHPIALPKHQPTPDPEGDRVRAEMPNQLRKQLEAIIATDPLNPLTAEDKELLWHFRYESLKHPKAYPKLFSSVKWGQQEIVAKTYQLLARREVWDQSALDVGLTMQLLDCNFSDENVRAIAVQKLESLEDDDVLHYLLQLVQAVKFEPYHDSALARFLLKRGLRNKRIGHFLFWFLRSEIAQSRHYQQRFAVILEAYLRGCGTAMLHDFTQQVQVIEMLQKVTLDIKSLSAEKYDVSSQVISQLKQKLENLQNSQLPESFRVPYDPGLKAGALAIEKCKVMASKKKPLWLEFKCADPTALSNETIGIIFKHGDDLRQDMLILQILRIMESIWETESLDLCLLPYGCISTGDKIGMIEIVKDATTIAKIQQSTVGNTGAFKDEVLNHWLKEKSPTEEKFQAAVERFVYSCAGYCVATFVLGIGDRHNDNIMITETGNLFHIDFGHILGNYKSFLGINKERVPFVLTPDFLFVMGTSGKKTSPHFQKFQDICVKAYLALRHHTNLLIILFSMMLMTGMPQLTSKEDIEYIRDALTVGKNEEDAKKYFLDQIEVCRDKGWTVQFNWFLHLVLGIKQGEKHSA
Phosphatidylinositol 4,5-bisphosphate 3-kinase catalytic subunit gamma isoform (Mus musculus, UniProt Q9JHG7), sequence (Q9JHG7 whole entry, canonical isoform): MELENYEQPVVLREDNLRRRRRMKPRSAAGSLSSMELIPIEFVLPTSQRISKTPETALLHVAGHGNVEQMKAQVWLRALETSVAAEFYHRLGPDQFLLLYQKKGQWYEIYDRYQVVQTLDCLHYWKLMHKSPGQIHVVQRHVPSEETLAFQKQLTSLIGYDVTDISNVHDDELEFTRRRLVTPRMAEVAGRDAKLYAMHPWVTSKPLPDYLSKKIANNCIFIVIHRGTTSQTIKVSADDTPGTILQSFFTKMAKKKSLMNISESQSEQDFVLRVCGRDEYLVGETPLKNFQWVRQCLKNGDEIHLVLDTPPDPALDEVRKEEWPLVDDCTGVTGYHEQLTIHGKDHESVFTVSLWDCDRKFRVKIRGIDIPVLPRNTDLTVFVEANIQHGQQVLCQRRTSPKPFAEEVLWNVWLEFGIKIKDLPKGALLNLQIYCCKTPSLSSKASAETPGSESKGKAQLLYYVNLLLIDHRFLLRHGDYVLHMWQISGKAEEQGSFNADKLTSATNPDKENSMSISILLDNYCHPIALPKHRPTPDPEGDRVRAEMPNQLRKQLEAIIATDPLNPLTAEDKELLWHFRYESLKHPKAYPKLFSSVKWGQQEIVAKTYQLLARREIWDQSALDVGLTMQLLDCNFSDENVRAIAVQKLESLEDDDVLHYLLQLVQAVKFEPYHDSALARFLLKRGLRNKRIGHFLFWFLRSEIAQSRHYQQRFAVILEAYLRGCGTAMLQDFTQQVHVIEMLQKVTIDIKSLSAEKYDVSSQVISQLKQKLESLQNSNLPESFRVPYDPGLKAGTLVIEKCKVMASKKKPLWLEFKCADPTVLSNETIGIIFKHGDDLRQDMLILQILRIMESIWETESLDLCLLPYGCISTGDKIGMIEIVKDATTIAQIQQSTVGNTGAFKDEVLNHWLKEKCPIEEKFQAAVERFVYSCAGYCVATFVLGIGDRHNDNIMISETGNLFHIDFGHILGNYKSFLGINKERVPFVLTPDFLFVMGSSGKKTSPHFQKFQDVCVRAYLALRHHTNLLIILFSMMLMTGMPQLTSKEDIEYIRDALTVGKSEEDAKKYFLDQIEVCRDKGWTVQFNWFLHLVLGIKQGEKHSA
Phosphatidylinositol 4-phosphate 3-kinase C2 domain-containing subunit alpha, sequence (O00443 whole entry, the tested form may be a part): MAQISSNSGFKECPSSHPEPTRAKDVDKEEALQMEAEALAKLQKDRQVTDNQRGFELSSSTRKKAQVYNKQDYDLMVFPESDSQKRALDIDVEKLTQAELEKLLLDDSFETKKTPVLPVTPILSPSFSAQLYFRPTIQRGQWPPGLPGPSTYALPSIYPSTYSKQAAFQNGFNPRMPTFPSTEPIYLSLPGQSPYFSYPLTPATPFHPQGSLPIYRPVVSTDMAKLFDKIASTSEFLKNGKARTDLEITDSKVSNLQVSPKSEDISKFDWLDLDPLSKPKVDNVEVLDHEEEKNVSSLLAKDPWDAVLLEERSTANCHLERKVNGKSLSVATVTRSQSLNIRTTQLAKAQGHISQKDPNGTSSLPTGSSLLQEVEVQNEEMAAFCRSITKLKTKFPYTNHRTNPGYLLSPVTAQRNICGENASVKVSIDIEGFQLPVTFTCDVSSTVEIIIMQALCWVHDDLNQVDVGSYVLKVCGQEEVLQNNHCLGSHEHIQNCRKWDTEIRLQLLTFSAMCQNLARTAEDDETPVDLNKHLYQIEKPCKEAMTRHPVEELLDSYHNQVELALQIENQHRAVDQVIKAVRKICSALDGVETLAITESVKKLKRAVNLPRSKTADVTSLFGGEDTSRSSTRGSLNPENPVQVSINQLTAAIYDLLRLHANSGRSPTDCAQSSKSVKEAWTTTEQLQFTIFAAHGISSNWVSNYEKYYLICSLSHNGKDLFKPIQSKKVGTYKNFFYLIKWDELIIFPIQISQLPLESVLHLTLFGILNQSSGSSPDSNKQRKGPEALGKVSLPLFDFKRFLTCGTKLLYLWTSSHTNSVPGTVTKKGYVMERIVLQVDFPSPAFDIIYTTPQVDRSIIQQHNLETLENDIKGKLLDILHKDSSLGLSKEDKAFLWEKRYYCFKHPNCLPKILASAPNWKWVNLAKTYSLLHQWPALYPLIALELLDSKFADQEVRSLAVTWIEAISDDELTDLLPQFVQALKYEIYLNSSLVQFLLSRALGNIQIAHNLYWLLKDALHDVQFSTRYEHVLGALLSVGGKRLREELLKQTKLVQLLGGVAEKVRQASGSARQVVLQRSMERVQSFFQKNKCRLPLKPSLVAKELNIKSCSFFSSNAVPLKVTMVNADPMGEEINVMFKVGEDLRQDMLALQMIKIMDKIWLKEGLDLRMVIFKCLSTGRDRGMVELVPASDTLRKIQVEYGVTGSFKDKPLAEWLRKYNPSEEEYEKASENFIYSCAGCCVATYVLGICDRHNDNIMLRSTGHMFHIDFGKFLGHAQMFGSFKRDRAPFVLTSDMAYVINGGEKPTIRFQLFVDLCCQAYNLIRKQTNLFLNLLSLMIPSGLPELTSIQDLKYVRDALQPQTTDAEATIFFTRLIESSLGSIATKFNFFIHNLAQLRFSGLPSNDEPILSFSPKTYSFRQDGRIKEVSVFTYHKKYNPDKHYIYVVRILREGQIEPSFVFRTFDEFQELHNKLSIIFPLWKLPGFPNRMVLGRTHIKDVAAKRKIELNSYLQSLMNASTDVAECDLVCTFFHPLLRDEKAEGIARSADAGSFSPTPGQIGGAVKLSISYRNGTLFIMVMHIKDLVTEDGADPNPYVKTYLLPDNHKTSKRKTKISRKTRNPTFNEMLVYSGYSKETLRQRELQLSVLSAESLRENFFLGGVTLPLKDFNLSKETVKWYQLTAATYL

As for `Cc1nc2sc1-c1cc3c(c(c1)S(=O)(=O)NCCN(C)CCCNC(=O)c1cccc(n1)N2)C(=O)N([C@@H](C)C1CC1)C3`, the IC50 in data set [1] was 1 nM; in data set [2] it was 3.16 nM; in [3] it was 0.631 nM; in data set [4] it was 0.794 nM; in [5], 50.1 nM.
Turning to `Cc1nc2sc1-c1cc3c(c(c1)S(=O)(=O)NCCOCCNC(=O)c1cccc(n1)N2)C(=O)N([C@@H](C)C1CC1)C3`, the clearance in data set [6] is 110 mL/min/kg. Besides, the half-maximal inhibitory concentration (IC50) is 0.794 nM in data set [1]; 2 nM in [2]; 25.1 nM in data set [10]; 0.631 nM in [3]; 2.51 nM in data set [4]; > 10000 nM in [12]. In addition, the IC50 in [13] is 316 nM; in data set [14], 20 nM; in [5], 39.8 nM; in data set [18] it was 0.794 nM. The Tm in [7] is 377 °C. For the same molecule, the half-life in data set [8] is 1.8 h; in data set [16], 6.9 h. Also, the permeability entry in data set [9] was “Permeable”. The molecule further yielded a log distribution coefficient (logD) in data set [11] of 3.7. The same molecule came in with a thermodynamic solubility at 24 h in data set [15] of 0.084 µM (≈ 0.0489 µg/mL). For the same molecule, the Vd in [17] came out at 8.6 L/kg.
In turn, `Cc1nc(Nc2cccc(N3CCOCC3=O)n2)sc1-c1cc2c(c(S(=O)(=O)NC3COC3)c1)C(=O)N([C@@H](C)C1CC1)C2` registered a clearance in data set [6] of 136 mL/min/kg. For the same molecule, the Tm in data set [7] worked out at 187 °C. For the same molecule, the half-life is 0.7 h in data set [8] and 4.2 h in data set [16]. Further, the permeability entry in data set [9] was “Impermeable”. Also, the half-maximal inhibitory concentration (IC50) in data set [10] was 31.6 nM; in data set [12], > 10000 nM; in [13], 3160 nM; in [14] it was 501 nM; in data set [5], 100 nM. The molecule also displayed a logD in data set [11] of 3.5. For the same molecule, the solubility (thermodynamic) at 24 h in [15] stood at 0.337 µM (≈ 0.211 µg/mL). Besides, the Vd in data set [17] is 5.4 L/kg.
Molecule `Cc1nc2sc1-c1cc3c(c(c1)S(=O)(=O)NCCN(C)CCNC(=O)c1cccc(n1)N2)C(=O)N([C@@H](C)C1CC1)C3` displayed a clearance in data set [6] of 83 mL/min/kg. Also, the concentration for half-maximal inhibition (IC50) in data set [1] was 1.58 nM; in data set [2], 3.16 nM; in data set [3] it was 0.501 nM; in [4], 1.58 nM; in [5], 39.8 nM. Besides, the Tm in data set [7] amounted to 349 °C. For the same molecule, the half-life in data set [8] was 1.8 h; in [16] it was 7.5 h. Further, the permeability entry in data set [9] is “Impermeable”. In [11], this molecule returned a logD of 3.9. For the same molecule, the pKa in data set [19] came to 6.4. In addition, in [15], the thermodynamic solubility at 24 h was 1.09 µM (≈ 0.649 µg/mL). The Vd in data set [17] stood at 7.3 L/kg.
`Cc1nc2sc1-c1cc3c(c(c1)S(=O)(=O)NCCCCCNC(=O)c1cccc(n1)N2)C(=O)N([C@@H](C)C1CC1)C3`: the half-inhibitory concentration (IC50) is 1.58 nM in [1]; 1.26 nM in data set [2]; 0.501 nM in data set [3]; 1.26 nM in [4]; 31.6 nM in data set [5].
Consider `Cc1nc(Nc2cccc(N3CCN(C)C3=O)n2)sc1-c1cc2c(c(S(C)(=O)=O)c1)C(=O)N([C@@H](C)C1CC1)C2`, for which the IC50 in [1] was 1 nM; in data set [2] it was 3.98 nM; in data set [3], 0.794 nM; in data set [5] it was 39.8 nM.
